{"source": "patent US9145399B2", "about": "“Substituted bicyclic triazole derivatives as gamma secretase modulators” (Janssen Pharmaceuticals, Inc., priority 2010, dated 2015)", "key": {"Aβ42": {"system": "Aβ42", "assay": "Screening for γ-secretase-modulating activity in SKNBE2 cells carrying APP 695 wild type: Aβ42 in cell supernatant (Alphalisa)", "assay_type": "cell-based", "settings": "overnight incubation", "method": "(§1) Pharmacology A) Screening of the Compounds of the Invention for γ-Secretase-Modulating Activity\n(§2) Screening was carried out using SKNBE2 cells carrying the APP 695—wild type, grown in Dulbecco's Modified Eagle's Medium/Nutrient mixture F-12 (DMEM/NUT-mix F-12) (HAM) provided by Invitrogen (cat no. 10371-029) containing 5% Serum/Fe supplemented with 1% non-essential amino acids, 1-glutamine 2 mM, Hepes 15 mM, penicillin 50 U/ml (units/ml) en streptomycin 50 μg/ml. Cells were grown to near confluency.\n(§3) The screening was performed using a modification of the assay as described in Citron et al (1997) Nature Medicine 3: 67. Briefly, cells were plated in a 384-well plate at 10^4 cells/well in Ultraculture (Lonza, BE12-725F) supplemented with 1% glutamine (Invitrogen, 25030-024), 1% non-essential amino acid (NEAA), penicillin 50 U/ml en streptomycin 50 μg/ml in the presence of test compound at different test concentrations. The cell/compound mixture was incubated overnight at 37° C., 5% CO2. The next day the media were assayed by two sandwich immuno-assays, for Aβ42 and Aβtotal.\n(§4) Aβtotal and Aβ42 concentrations were quantified in the cell supernatant using the Aphalisa technology (Perkin Elmer). Alphalisa is a sandwich assay using biotinylated antibody attached to streptavidin coated donorbeads and antibody conjugated to acceptor beads. In the presence of antigen, the beads come into close proximity. The excitation of the donor beads provokes the release of singlet oxygen molecules that trigger a cascade of energy transfer in the acceptor beads, resulting in light emission. To quantify the amount of Aβ42 in the cell supernatant, monoclonal antibody specific to the C-terminus of Aβ42 (JRF/cAβ42/26) was coupled to the receptor beads and biotinylated antibody specific to the N-terminus of Aβ (JRF/AβN/25) was used to react with the donor beads. T quantify the amount of Aβtotal in the cell supernatant, monoclonal antibody specific to the N-terminus of Aβ (JRF/AβN/25) was coupled to the receptor beads and biotinylated antibody specific to the mid region of Aβ (biotinylated 4G8) was used to react with the donor beads.\n(§5) To obtain the values reported in Table 3, the data are calculated as percentage of the maximum amount of amyloid Beta 42 measured in the absence of the test compound. The sigmoidal dose response curves were analyzed using non-linear regression analysis with percentage of the control plotted against the log concentration of the compound. A 4-parameter equation was used to determine the IC50."}, "Aβtotal": {"system": "Aβtotal", "assay": "Screening for γ-secretase-modulating activity in SKNBE2 cells carrying APP 695 wild type: Aβtotal in cell supernatant (Alphalisa)", "assay_type": "cell-based", "settings": "overnight incubation", "method": "as §1, §2, §3, §4, §5"}, "[1]": {"settings": "Homo sapiens, SKNBE2, SKNBE2 cells carrying APP 695 wild type"}, "[2]": {"settings": "SKNBE2 cells carrying APP 695 wild type"}}, "note": "pIC50: −log10 of the molar value. Structures can show the parent of a compound that is named as a salt."}
{"smiles": "COc1cc(Nc2nc3c(-c4ccc(F)cc4C(F)(F)F)cccn3n2)ccc1-n1cnc(C)n1", "note": "[Compound 4, 8-[4-fluoro-2-(trifluoromethyl)phenyl]-N-[3-methoxy-4-(3-methyl-1H-1,2,4-triazol-1-yl)phenyl]-[1,2,4]triazolo[1,5-a]pyridin-2-amine]", "values": [{"measurement": "pIC50", "setting": "Aβ42; [1]", "result": 7.66}, {"measurement": "pIC50", "setting": "Aβtotal; Homo sapiens", "result": "< 5.00"}]}
{"smiles": "COc1cc(Nc2nc3n(n2)CCCC3c2ccc(F)cc2)ccc1-n1cnc(C)c1", "note": "(stereo not drawn) [Compound 5, 8-(4-fluorophenyl)-5,6,7,8-tetrahydro-N-[3-methoxy-4-(4-methyl-1H-imidazol-1-yl)phenyl]-[1,2,4]triazolo[1,5-a]pyridin-2-amine]", "values": [{"measurement": "pIC50", "setting": "Aβ42; [1]", "result": 7.74}, {"measurement": "pIC50", "setting": "Aβtotal; Homo sapiens", "result": "< 5.00"}]}
{"smiles": "COc1cc(Nc2nc3c(-c4ccc(F)cc4C)nccn3n2)ccc1-n1cnc(C)c1", "note": "[Compound 10, 8-(4-fluoro-2-methylphenyl)-N-[3-methoxy-4-(4-methyl-1H-imidazol-1-yl)phenyl]-[1,2,4]triazolo[1,5-a]pyrazin-2-amine]", "values": [{"measurement": "pIC50", "setting": "Aβ42; [1]", "result": 8.05}, {"measurement": "pIC50", "setting": "Aβtotal; Homo sapiens", "result": "< 5.00"}]}
{"smiles": "COc1nc(Nc2nc3n(n2)CCCC3c2ccc(F)cc2)ccc1-c1ccnc(C)c1", "note": "(stereo not drawn) [Compound 16, 8-(4-fluorophenyl)-5,6,7,8-tetrahydro-N-(2-methoxy-2′-methyl[3,4′-bipyridin]-6-yl)-[1,2,4]triazolo[1,5-a]pyridin-2-amine]", "values": [{"measurement": "pIC50", "setting": "Aβ42; [1]", "result": 6.44}, {"measurement": "pIC50", "setting": "Aβtotal; Homo sapiens", "result": "< 5.00"}]}
{"smiles": "COc1nc(Nc2nc3n(n2)CCCC3c2ccccc2C(F)(F)F)ccc1-n1cnc(C)c1", "note": "(stereo not drawn) [Compound 17, 5,6,7,8-tetrahydro-N-[6-methoxy-5-(4-methyl-1H-imidazol-1-yl)-2-pyridinyl]-8-[2-(trifluoromethyl)phenyl]-[1,2,4]triazolo[1,5-a]pyridin-2-amine]", "values": [{"measurement": "pIC50", "setting": "Aβ42; [1]", "result": 6.53}, {"measurement": "pIC50", "setting": "Aβtotal; Homo sapiens", "result": "< 5.00"}]}
{"smiles": "COc1nc(Nc2nc3n(n2)CCCC3c2ccccc2Cl)ccc1-n1cnc(C)c1", "note": "(stereo not drawn) [Compound 18, 8-(2-chlorophenyl)-5,6,7,8-tetrahydro-N-[6-methoxy-5-(4-methyl-1H-imidazol-1-yl)-2-pyridinyl]-[1,2,4]triazolo[1,5-a]pyridin-2-amine]", "values": [{"measurement": "pIC50", "setting": "Aβ42; [1]", "result": 6.95}, {"measurement": "pIC50", "setting": "Aβtotal; Homo sapiens", "result": "< 5.00"}]}
{"smiles": "COc1cc(Nc2nc3c(-c4ccc(F)cc4C)cccn3n2)ccc1-n1cnc(C)c1", "note": "[Compound 19, 8-(4-fluoro-2-methylphenyl)-N-[3-methoxy-4-(4-methyl-1H-imidazol-1-yl)phenyl]-[1,2,4]triazolo[1,5-a]pyridin-2-amine]", "values": [{"measurement": "pIC50", "setting": "Aβ42; [1]", "result": 8.40}, {"measurement": "pIC50", "setting": "Aβtotal; Homo sapiens", "result": 5.43}]}
{"smiles": "COc1cc(Nc2nc3cc(-c4ccccc4C(F)(F)F)ccn3n2)ccc1-n1cnc(C)c1", "note": "[Compound 21, N-[3-methoxy-4-(4-methyl-1H-imidazol-1-yl)phenyl]-7-[2-(trifluoromethyl)phenyl]-[1,2,4]triazolo[1,5-a]pyridin-2-amine]", "values": [{"measurement": "pIC50", "setting": "Aβ42; [1]", "result": 6.94}, {"measurement": "pIC50", "setting": "Aβtotal; Homo sapiens", "result": "< 5.00"}]}
{"smiles": "Cc1ncoc1-c1ccc(Nc2nc3c(-c4ccccc4C(F)(F)F)cccn3n2)cc1", "note": "[Compound 24, N-[4-(4-methyl-5-oxazolyl)phenyl]-8-[2-(trifluoromethyl)phenyl]-[1,2,4]triazolo[1,5-a]pyridin-2-amine]", "values": [{"measurement": "pIC50", "setting": "Aβ42; [1]", "result": 6.90}, {"measurement": "pIC50", "setting": "Aβtotal; Homo sapiens", "result": "< 5.00"}]}
{"smiles": "COc1cc(Nc2nc3n(n2)CCCC3c2ccccc2Cl)ccc1-n1cnc(C)c1", "note": "(stereo not drawn) [Compound 27, 8-(2-chlorophenyl)-5,6,7,8-tetrahydro-N-[3-methoxy-4-(4-methyl-1H-imidazol-1-yl)phenyl]-[1,2,4]triazolo[1,5-a]pyridin-2-amine]", "values": [{"measurement": "pIC50", "setting": "Aβ42; [1]", "result": 7.85}, {"measurement": "pIC50", "setting": "Aβtotal; Homo sapiens", "result": 5.07}]}
{"smiles": "COc1cc(N(C)c2nc3n(n2)CCCC3c2ccccc2C(F)(F)F)ccc1-n1cnc(C)c1", "note": "(stereo not drawn) [Compound 33, 5,6,7,8-tetrahydro-N-[3-methoxy-4-(4-methyl-1H-imidazol-1-yl)phenyl]-N-methyl-8-[2-(trifluoromethyl)phenyl]-[1,2,4]triazolo[1,5-a]pyridin-2-amine HCl]", "values": [{"measurement": "pIC50", "setting": "Aβ42; [1]", "result": 5.35}, {"measurement": "pIC50", "setting": "Aβtotal; Homo sapiens", "result": "< 5.00"}]}
{"smiles": "COc1cccc(C2CCCn3nc(Nc4ccc(-n5cnc(C)c5)c(OC)c4)nc32)c1", "note": "(stereo not drawn) [Compound 35, 5,6,7,8-tetrahydro-N-[3-methoxy-4-(4-methyl-1H-imidazol-1-yl)phenyl]-8-(3-methoxyphenyl)-[1,2,4]triazolo[1,5-a]pyridin-2-amine.2HCl.H2O]", "values": [{"measurement": "pIC50", "setting": "Aβ42; [2]", "result": 7.51}, {"measurement": "pIC50", "setting": "Aβtotal", "result": "< 5.00"}]}
{"smiles": "COc1cc(C(=O)Nc2nc3n(n2)CCCC3c2ccc(F)cc2)ccc1-n1cnc(C)c1", "note": "(stereo not drawn) [Compound 36, N-[8-(4-fluorophenyl)-5,6,7,8-tetrahydro[1,2,4]triazolo[1,5-a]pyridin-2-yl]-3-methoxy-4-(4-methyl-1H-imidazol-1-yl)-benzamide]", "values": [{"measurement": "pIC50", "setting": "Aβ42; [1]", "result": 6.30}, {"measurement": "pIC50", "setting": "Aβtotal; Homo sapiens", "result": "< 5.00"}]}
{"smiles": "COc1cccc(C2CCCn3nc(Nc4ccc(-c5ccnc(C)c5)c(OC)c4)nc32)c1", "note": "(stereo not drawn) [Compound 40, 5,6,7,8-tetrahydro-N-[3-methoxy-4-(2-methyl-4-pyridinyl)phenyl]-8-(3-methoxyphenyl)-[1,2,4]triazolo[1,5-a]pyridin-2-amine.1.8 HCl.0.9H2O]", "values": [{"measurement": "pIC50", "setting": "Aβ42; [2]", "result": 7.41}, {"measurement": "pIC50", "setting": "Aβtotal", "result": "< 5.00"}]}
{"smiles": "Cc1cc(-c2ccc(Nc3nc4n(n3)CCCC4c3ccccc3C(F)(F)F)cc2)c(C)cn1", "note": "(stereo not drawn) [Compound 45, N-[4-(2,5-dimethyl-4-pyridinyl)phenyl]-5,6,7,8-tetrahydro-8-[2-(trifluoromethyl)phenyl]-[1,2,4]triazolo[1,5-a]pyridin-2-amine]", "values": [{"measurement": "pIC50", "setting": "Aβ42; [1]", "result": 6.84}, {"measurement": "pIC50", "setting": "Aβtotal; Homo sapiens", "result": "< 5.00"}]}
{"smiles": "COc1cc(Nc2nc3n(n2)CCC(c2ccccc2C(F)(F)F)C3)ccc1-n1cnc(C)c1", "note": "(stereo not drawn) [Compound 51, 5,6,7,8-tetrahydro-N-[3-methoxy-4-(4-methyl-1H-imidazol-1-yl)phenyl]-7-[2-(trifluoromethyl)phenyl]-[1,2,4]triazolo[1,5-a]pyridin-2-amine]", "values": [{"measurement": "pIC50", "setting": "Aβ42; [1]", "result": 7.21}, {"measurement": "pIC50", "setting": "Aβtotal; Homo sapiens", "result": "< 5.00"}]}
{"smiles": "COc1cc(Nc2nc3n(n2)CCC(c2ccccc2C(F)(F)F)C3)ccc1-c1ccnc(C)c1", "note": "(stereo not drawn) [Compound 62, 5,6,7,8-tetrahydro-N-[3-methoxy-4-(2-methyl-4-pyridinyl)phenyl]-7-[2-(trifluoromethyl)phenyl]-[1,2,4]triazolo[1,5-a]pyridin-2-amine HCl]", "values": [{"measurement": "pIC50", "setting": "Aβ42; [1]", "result": 6.91}, {"measurement": "pIC50", "setting": "Aβtotal; Homo sapiens", "result": "< 5.00"}]}
{"smiles": "COc1cc(Nc2nc3c(-c4cc(C(F)(F)F)ccc4F)cccn3n2)ccc1-n1cnc(C)c1", "note": "[Compound 63, 8-[2-fluoro-5-(trifluoromethyl)phenyl]-N-[3-methoxy-4-(4-methyl-1H-imidazol-1-yl)phenyl]-[1,2,4]triazolo[1,5-a]pyridin-2-amine]", "values": [{"measurement": "pIC50", "setting": "Aβ42; [1]", "result": 7.72}, {"measurement": "pIC50", "setting": "Aβtotal; Homo sapiens", "result": 5.09}]}
{"smiles": "COc1cc(NC(=O)c2nc3c(-c4ccccc4Cl)cccn3n2)ccc1-n1cnc(C)c1", "note": "[Compound 72, 8-(2-chlorophenyl)-N-[3-methoxy-4-(4-methyl-1H-imidazol-1-yl)phenyl]-[1,2,4]triazolo[1,5-a]pyridine-2-carboxamide]", "values": [{"measurement": "pIC50", "setting": "Aβ42; [1]", "result": 7.64}, {"measurement": "pIC50", "setting": "Aβtotal; Homo sapiens", "result": 5.34}]}
{"smiles": "COc1cc(Nc2nc3c(-c4ccc(F)cc4)c(C)ccn3n2)ccc1-c1ccnc(C)c1", "note": "[Compound 74, 8-(4-fluorophenyl)-N-[3-methoxy-4-(2-methyl-4-pyridinyl)phenyl]-7-methyl-[1,2,4]triazolo[1,5-a]pyridin-2-amine]", "values": [{"measurement": "pIC50", "setting": "Aβ42; [1]", "result": 7.82}, {"measurement": "pIC50", "setting": "Aβtotal; Homo sapiens", "result": 5.13}]}
{"smiles": "Cc1cc(-c2ccc(Nc3nc4n(n3)CCOC4c3ccccc3C(F)(F)F)cc2)ccn1", "note": "(stereo not drawn) [Compound 85, 5,6-dihydro-N-[4-(2-methyl-4-pyridinyl)phenyl]-8-[2-(trifluoromethyl)phenyl]-8H-[1,2,4]triazolo[5,1-c][1,4]oxazin-2-amine]", "values": [{"measurement": "pIC50", "setting": "Aβ42; [1]", "result": 7.36}, {"measurement": "pIC50", "setting": "Aβtotal; Homo sapiens", "result": "< 5.00"}]}
